The nature of assay [1]: CellTiter-Glo luminescence survival assay, SW480 colon tumor line, concentration-response curve, half-maximal inhibitory concentration (AID 1117338). In kind it is functional.
Assay [2] in a line: Reduced DLD-1 viability, concentration-response, CellTiter-Glo luminescence (AID 1117352). In kind it is functional.
The nature of assay [3]: cytotoxicity toward HT-29 cells – cell-based, CellTiter-Glo luminescence, IC50, dose response (AID 1117330). The assay is classed as functional.
In the next assay the test system is INS1. The assay can be described thus: INS-1E survival protection against cytokine death – cell-based, luminescence, retest, dose response (AID 449756).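 Also: cell death triggered by IL-1 beta plus TNF-alpha plus IFN-gamma mixture; protective hits raise ATP signal compared with cytokine alone wells.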 In kind it is functional. To be noted: Rattus norvegicus.
The nature of assay [4]: cytotoxicity toward HCT116 cells – cell-based, CellTiter-Glo luminescence, IC50, dose response (AID 1117332). The assay is classed as functional. To be noted: HCT-116.
In assay [5] the target is Aryl hydrocarbon receptor (Homo sapiens, UniProt P35869). The settings on record: Potency.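 Also: confirmatory quantitative high-throughput screen measuring activation of the AhR signaling pathway.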
Chain of Aryl hydrocarbon receptor (P35869 whole entry): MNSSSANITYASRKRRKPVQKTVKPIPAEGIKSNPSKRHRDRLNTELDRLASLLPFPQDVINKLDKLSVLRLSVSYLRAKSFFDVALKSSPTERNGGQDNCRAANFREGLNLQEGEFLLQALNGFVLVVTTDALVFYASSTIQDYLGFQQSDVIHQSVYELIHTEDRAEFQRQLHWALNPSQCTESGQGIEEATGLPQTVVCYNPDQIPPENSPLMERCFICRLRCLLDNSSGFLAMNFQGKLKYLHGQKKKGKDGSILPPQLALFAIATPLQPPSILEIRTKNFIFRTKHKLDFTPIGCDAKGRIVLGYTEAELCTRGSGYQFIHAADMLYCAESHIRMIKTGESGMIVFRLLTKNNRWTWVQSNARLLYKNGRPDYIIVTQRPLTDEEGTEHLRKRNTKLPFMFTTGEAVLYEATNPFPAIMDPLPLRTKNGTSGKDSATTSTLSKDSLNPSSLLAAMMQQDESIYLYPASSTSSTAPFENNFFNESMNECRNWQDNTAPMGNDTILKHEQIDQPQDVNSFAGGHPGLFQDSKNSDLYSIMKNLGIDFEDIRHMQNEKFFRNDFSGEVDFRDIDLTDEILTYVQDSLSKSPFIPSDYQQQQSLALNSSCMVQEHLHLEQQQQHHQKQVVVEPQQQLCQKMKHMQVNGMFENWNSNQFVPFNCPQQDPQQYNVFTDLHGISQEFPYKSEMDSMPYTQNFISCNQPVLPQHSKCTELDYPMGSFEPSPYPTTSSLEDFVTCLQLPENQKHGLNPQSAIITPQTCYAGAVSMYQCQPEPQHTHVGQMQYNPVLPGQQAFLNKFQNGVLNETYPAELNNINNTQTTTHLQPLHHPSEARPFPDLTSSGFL
Assay [6] in a line: SNU-C1 cell viability reduction, dose response, CellTiter-Glo luminescence (AID 1117323). In kind it is functional, cell-based.
Assay [7] has as its target NACHT, LRR and PYD domains-containing protein 3 (Homo sapiens, UniProt Q96P20). The assay can be described thus: NALP3 inhibitors in yeast, dose response, luminescent (AID 488799). In kind it is functional.
A short description of assay [8]: HCT116 cell viability decrease, GSK3B pretreatment – CellTiter-Glo, IC50, dose response (AID 1117339). To be noted: HCT-116. In kind it is functional.
Assay [9] is described as follows: RKO cell viability reduction, dose response, CellTiter-Glo luminescence (AID 1117322). In kind it is functional.
Assay [10] can be described thus: cytotoxicity toward Colo320 cells – cell-based, CellTiter-Glo luminescence, IC50, dose response (AID 1117334). In kind it is functional. To be noted: COLO 320.
For assay [11], the target named is Neurotensin receptor type 1 (Homo sapiens, UniProt P30989). In kind it is functional.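 Also: Image-based confirmatory dose-response assay measuring agonist activity at NTR1; NTR1-expressing U2OS osteosarcoma cells imaged for beta-arrestin GFP spot formation; agonist potency where compounds increase beta-arrestin recruitment.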
Chain of Neurotensin receptor type 1 (P30989 whole entry): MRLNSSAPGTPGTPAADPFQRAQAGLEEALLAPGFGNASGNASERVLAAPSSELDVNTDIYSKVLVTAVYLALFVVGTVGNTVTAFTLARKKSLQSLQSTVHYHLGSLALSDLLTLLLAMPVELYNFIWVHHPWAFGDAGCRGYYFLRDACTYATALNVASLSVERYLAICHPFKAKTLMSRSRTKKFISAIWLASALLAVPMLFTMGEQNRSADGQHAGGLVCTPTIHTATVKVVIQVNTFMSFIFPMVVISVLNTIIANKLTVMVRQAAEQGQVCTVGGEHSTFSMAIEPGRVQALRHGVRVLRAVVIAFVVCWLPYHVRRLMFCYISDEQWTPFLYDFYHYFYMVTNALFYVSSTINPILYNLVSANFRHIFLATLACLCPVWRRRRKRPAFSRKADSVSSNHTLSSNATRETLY
Assay [12] deals with Vero. As to the kind of experiment: host cell viability loss, Vero E6 – synthesized analogs, cytotoxicity control for West Nile virus antiviral project, SAR follow-up (AID 2244). The assay is classed as functional. To be noted: Chlorocebus sabaeus.
Assay [13] has as its system Vero. The assay can be described thus: Vero cell viability after compound exposure – synthesized analogs, set II, cytotoxicity control for West Nile virus antiviral project, SAR follow-up (AID 2402). In kind it is functional. The settings on record: Chlorocebus sabaeus.
The test system of assay [14] is Vero. The assay can be described thus: Vero 76 cell viability after compound exposure – Vero 76 cells, synthesized analogs, cytotoxicity control for West Nile virus antiviral project, SAR follow-up (AID 2414). In kind it is functional. The settings on record: Chlorocebus sabaeus.
The target of assay [15] is Cyclin-dependent kinase 5/CDK5 activator 1 (Homo sapiens, UniProt Q00535). The assay can be described thus: blockade of human CDK5 activity – biochemical, cherry-picked samples, set 2, dose response (AID 504545).
Chain of Cyclin-dependent kinase 5/CDK5 activator 1 (Q00535 whole entry): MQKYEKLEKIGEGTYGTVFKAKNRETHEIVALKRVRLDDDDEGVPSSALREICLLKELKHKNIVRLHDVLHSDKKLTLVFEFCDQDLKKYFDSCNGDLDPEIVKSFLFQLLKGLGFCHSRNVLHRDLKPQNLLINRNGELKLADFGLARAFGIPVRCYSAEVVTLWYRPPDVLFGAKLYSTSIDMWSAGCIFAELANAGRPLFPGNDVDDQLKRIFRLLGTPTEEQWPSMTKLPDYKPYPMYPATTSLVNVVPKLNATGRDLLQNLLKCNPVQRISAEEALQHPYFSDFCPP
Chain of Cyclin-dependent kinase 5/CDK5 activator 1 (Q15078 whole entry, further chain): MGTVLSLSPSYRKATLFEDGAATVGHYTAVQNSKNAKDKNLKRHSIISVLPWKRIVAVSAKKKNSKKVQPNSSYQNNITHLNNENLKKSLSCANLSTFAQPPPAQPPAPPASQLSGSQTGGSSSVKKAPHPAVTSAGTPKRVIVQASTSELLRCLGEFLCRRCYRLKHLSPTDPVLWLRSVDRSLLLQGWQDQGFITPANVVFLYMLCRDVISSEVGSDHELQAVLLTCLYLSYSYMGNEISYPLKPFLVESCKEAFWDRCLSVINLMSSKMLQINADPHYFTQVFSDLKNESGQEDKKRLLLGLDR
Assay [16] has as its target Dual specificity tyrosine-phosphorylation-regulated kinase 1A (Rattus norvegicus, UniProt Q63470). In kind it is biochemical, Homo sapiens.
A further assay concerns HEK293. As to the kind of experiment: cells. The assay is classed as functional, cell-based. The settings on record: Homo sapiens.
Assay [17] deals with 5-hydroxytryptamine receptor 2A (Mus musculus, UniProt P35363). The assay is classed as functional, cell-based.
Chain of 5-hydroxytryptamine receptor 2A (P35363 whole entry): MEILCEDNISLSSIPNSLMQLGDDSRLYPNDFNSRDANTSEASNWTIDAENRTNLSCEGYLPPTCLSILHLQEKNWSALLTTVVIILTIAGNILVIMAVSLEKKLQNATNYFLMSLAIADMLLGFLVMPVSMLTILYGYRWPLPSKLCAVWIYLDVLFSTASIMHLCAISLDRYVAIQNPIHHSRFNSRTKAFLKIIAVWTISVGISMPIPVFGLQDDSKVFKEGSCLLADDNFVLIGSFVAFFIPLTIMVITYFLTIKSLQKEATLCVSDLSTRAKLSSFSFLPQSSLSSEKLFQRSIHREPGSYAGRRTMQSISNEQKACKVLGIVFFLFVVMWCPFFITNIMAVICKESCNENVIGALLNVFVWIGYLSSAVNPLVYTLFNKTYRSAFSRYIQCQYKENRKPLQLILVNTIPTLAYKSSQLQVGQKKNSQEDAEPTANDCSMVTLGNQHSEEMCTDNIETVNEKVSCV
A short description of assay [18]: Counterscreen for activators of the function of SWI/SNF related, matrix associated, actin dependent regulator of chromatin, subfamily a, member 2 (SMARCA2, BRM): Luminescence-based cell-based high throughput dose response assay to identify non-selective compounds using the VP16 reporter assay. The assay is classed as functional.
A further assay addresses Mu-type opioid receptor (Homo sapiens, UniProt P35372). The assay is classed as functional, cell-based.
Assay [19] concerns the target T1, Oxysterols receptor LXR-beta (Homo sapiens, UniProt P55055).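 Also: agonist activity at LXR measured by a cell-based luminescence readout across a dose range, run as a counterscreen for daf-12 agonists; HEK293 cells with Gal4-LXR fusion and GAL4-driven luciferase reporter; potency for activation of Gal4-LXR reporter so compounds are agonists.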
T1 sequence (P55055 whole entry): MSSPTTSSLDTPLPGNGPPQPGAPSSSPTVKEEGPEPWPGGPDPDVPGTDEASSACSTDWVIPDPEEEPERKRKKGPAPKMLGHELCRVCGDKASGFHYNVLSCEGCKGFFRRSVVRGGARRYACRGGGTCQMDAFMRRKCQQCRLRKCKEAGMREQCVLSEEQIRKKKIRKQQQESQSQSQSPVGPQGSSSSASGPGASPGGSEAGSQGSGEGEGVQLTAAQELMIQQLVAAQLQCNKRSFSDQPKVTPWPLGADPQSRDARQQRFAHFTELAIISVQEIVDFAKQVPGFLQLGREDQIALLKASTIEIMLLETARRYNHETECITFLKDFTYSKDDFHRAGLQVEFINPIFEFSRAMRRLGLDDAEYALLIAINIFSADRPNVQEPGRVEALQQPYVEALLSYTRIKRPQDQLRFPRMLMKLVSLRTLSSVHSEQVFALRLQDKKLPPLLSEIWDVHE
In kind it is functional, cell-based.

For assay [20], the target named is SWI/SNF-related matrix-associated actin-dependent regulator of chromatin subfamily A member 2 (Homo sapiens, UniProt P51531). The assay can be described thus: Luminescence-based cell-based high throughput dose response assay to identify activators of the function of SWI/SNF related, matrix associated, actin dependent regulator of chromatin, subfamily a, member 2 (SMARCA2, BRM). The assay is classed as functional.

In assay [21] the target is T2, Nuclear receptor subfamily 0 group B member 1 (Homo sapiens, UniProt P51843).
T2 sequence (P51843 whole entry): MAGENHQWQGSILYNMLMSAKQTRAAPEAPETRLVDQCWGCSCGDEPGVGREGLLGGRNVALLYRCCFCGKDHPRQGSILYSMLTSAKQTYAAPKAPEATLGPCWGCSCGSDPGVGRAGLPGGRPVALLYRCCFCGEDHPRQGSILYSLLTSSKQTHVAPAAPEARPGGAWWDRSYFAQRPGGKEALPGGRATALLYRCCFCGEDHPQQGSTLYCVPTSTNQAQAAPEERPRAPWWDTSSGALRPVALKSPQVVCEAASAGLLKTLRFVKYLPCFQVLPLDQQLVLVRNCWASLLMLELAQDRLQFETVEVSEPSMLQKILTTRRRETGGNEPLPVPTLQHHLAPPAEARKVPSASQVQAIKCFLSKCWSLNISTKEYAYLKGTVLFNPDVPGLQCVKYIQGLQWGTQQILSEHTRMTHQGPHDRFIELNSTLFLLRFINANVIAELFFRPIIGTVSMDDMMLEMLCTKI
As to the kind of experiment: Luminescence-based cell-based high throughput dose response assay for inhibitors of the orphan nuclear receptor subfamily 0, group B, member 1 (DAX1; NR0B1). [Related pubchem assays (depositor defined):AID504766, AID504790]. In kind it is functional.

The next assay deals with Cytochrome P450 2C19 (Homo sapiens, UniProt P33261). As to the kind of experiment: Cytochrome panel assay with activity outcomes. Panel member name: p450-cyp2c19 Compounds with AC50 equal or less than 10 uM are considered active. In kind it is functional. To be noted: read-out: AC50.
Assay [22] deals with T3, Cytochrome P450 2C9 (Homo sapiens, UniProt P11712).
T3 sequence (P11712 whole entry): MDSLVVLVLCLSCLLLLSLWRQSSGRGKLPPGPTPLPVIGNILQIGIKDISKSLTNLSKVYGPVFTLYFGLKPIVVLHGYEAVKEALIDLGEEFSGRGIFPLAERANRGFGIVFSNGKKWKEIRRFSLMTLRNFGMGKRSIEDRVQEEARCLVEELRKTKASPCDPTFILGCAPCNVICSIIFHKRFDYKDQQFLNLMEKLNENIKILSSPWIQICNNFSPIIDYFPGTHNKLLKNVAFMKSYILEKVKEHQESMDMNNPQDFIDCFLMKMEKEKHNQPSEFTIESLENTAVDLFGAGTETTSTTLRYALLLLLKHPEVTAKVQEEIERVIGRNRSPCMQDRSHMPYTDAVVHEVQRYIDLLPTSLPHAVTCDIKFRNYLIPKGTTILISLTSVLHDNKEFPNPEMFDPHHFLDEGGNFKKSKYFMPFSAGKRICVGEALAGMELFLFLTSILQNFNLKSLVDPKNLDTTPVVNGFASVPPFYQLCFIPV
In another assay the target is T4, Cytochrome P450 1A2 (Homo sapiens, UniProt P05177).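 Also: PubChem cytochrome P450 panel assay, CYP1A2 panel member.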
T4 sequence (P05177 whole entry): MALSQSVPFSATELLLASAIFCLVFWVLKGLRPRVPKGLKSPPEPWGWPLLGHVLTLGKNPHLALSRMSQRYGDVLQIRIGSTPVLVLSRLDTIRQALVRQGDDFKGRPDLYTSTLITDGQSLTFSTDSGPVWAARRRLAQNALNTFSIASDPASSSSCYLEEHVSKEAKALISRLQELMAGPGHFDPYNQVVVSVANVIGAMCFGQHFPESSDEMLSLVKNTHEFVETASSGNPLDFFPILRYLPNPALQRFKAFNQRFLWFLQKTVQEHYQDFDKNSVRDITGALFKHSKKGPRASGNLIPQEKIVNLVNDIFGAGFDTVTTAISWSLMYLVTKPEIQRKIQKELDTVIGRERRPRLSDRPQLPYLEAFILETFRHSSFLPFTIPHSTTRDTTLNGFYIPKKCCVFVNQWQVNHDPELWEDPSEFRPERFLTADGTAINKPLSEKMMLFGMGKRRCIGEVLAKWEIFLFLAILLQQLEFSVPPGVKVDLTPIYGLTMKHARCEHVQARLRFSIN

Assay [23] addresses T3, Cytochrome P450 2C9. The settings on record: Potency.
Assay [24] has as its target T5, Cytochrome P450 2D6 (Homo sapiens, UniProt P10635).
The target in assay [25] is T5, Cytochrome P450 2D6. The assay can be described thus: qHTS Assay for Inhibitors and Substrates of Cytochrome P450 2D6. [Related pubchem assays: 410 ]. In kind it is ADME. To be noted: read-out: Potency.

Calls of active or inactive are those of the source. Where only a bound is given, the exact number is not on record here.

T5 sequence (P10635 whole entry): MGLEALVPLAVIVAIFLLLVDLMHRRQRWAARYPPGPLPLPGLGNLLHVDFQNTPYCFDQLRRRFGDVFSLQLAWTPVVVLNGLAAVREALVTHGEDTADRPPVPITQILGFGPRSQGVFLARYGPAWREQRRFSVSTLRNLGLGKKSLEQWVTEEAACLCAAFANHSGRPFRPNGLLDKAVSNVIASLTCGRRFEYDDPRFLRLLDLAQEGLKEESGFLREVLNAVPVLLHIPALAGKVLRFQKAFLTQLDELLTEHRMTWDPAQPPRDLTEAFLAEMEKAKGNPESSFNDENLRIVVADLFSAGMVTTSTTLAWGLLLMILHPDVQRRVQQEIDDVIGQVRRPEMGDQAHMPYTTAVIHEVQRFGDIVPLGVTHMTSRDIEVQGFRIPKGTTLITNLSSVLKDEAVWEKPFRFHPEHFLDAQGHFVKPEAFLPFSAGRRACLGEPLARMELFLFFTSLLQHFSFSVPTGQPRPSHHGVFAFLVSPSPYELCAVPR
Chain of Mu-type opioid receptor (P35372 whole entry, the tested form may be a part): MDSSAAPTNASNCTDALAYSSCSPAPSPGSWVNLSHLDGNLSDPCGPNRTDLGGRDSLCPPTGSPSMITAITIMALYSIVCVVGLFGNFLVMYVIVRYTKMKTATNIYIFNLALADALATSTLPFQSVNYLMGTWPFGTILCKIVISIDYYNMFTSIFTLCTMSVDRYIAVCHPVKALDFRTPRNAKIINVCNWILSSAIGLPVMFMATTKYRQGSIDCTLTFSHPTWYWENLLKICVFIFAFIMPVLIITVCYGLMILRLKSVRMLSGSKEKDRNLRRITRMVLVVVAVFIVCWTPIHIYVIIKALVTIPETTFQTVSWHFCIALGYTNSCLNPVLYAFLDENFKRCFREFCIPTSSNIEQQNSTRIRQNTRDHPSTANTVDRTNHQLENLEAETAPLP
Chain of NACHT, LRR and PYD domains-containing protein 3 (Q96P20 whole entry, the tested form may be a part): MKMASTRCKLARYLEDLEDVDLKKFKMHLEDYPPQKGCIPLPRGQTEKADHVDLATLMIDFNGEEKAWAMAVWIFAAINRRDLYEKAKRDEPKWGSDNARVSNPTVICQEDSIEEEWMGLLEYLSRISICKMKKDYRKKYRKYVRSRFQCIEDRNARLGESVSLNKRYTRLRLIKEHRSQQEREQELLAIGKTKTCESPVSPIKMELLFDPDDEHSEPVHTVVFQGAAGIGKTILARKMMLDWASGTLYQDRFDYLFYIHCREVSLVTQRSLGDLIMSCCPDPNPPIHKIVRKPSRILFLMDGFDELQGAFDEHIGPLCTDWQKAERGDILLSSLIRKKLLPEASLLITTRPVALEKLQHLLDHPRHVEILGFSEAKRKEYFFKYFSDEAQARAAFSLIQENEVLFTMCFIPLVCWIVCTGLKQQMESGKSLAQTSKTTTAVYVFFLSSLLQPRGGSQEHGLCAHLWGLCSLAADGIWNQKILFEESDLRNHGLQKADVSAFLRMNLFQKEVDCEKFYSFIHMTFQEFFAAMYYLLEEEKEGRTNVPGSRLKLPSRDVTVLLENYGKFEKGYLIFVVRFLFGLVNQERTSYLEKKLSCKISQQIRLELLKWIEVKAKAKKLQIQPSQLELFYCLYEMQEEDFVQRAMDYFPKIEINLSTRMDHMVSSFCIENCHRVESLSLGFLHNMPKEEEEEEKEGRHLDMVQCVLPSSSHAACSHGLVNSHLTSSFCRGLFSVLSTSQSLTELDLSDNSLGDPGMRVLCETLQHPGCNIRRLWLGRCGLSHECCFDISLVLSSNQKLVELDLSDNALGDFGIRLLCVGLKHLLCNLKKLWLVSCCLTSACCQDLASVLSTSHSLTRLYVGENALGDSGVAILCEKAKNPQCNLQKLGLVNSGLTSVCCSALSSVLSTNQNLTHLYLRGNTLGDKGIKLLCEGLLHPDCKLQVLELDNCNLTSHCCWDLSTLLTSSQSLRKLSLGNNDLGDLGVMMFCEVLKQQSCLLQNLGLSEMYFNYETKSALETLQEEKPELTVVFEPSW

For `O=C(Nc1ccc(Cl)cc1)Nc1ccc(Cl)c(Cl)c1` [TRICLOCARBAN], the IC50 was 0.897 µM (active) in [1]; 0.323 µM (active) in assay [2]; 0.383 µM (active) in [3]; 0.228 µM (active) in assay [4]; 0.335 µM (active) in [6]; 1.49 µM (active) in assay [7]. The results for the IC50 in assay [8], in [9] and in assay [10] were 0.362 µM (active), 0.288 µM (active) and 0.362 µM (active), respectively. Moreover, the AC50 with INS1 is 3.69 µM (active); in assay [5] it was 14.1 µM (inconclusive).
With `O=C(/C=C/c1ccccc1F)c1cccc([N+](=O)[O-])c1`, the EC50 in assay [11] is 15.1 µM (active).
For the molecule `O=c1c2cc(Br)ccc2nc2n1CC/C2=C/c1ccccc1`, the CC50 in the assay with Vero [12] is > 40 µM (active); with Vero [13], 33.3 µM (active); with Vero [14], > 66.6 µM (active).
Regarding `N#Cc1c(Br)n(C2OC(CO)C(O)C2O)c2ncnc(N)c12` (stereo not given), the AC50 was 184 µM (active) in [15] and 2.09 µM (active) in [16]. Moreover, the IC50 (in the assay on HEK293; in assay [21]) was > 67.5 µM (inactive) each time. Moreover, the EC50 in assay [17] was 0.482 µM (active); in [18], > 91.1 µM (inactive); at Mu-type opioid receptor, 92.4 µM (inactive); in assay [19] it was > 67.5 µM (inactive); in [20] it was > 91.1 µM (inactive).
As to `O=C(CCNNC(=O)c1ccncc1)NCc1ccccc1` [NIALAMIDE], the AC50 on Cytochrome P450 2C19 was 10 µM (inconclusive); on Cytochrome P450 2C9 [22] it was 10 µM (inconclusive); at Cytochrome P450 1A2, 12.6 µM (inconclusive); on Cytochrome P450 2C9 [23], 25.1 µM (inconclusive); at Cytochrome P450 2D6 [24], 7.94 µM (inconclusive); at Cytochrome P450 2D6 [25], 25.1 µM (inconclusive).

Source of the values: ChEMBL document CHEMBL1201862, “PubChem BioAssay data set” (2004).
